Results reported in PubChem BioAssay (NCI).
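Method: 48-hour compound exposure of cells in 96-well plates, five concentrations, linear interpolation of endpoints. GI50 = concentration required for 50% inhibition of growth. TGI denotes the concentration required for complete inhibition of growth.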

How the values were obtained:
Test in all cases: NCI tumour cell line growth inhibition, 48 h
XF 498 CNS = tested on: XF 498 CNS
M19-MEL melanoma = tested on: M19-MEL melanoma
DLD-1 colon = tested on: DLD-1 colon
LXFL 529 NSCLC = tested on: LXFL 529 NSCLC
KM20L2 colon = tested on: KM20L2 colon
TK-10 renal = tested on: TK-10 renal
SNB-78 CNS = tested on: SNB-78 CNS
DMS 273 small cell lung = tested on: DMS 273 small cell lung
SNB-19 CNS = tested on: SNB-19 CNS
MDA-N = tested on: MDA-N
HOP-18 NSCLC = tested on: HOP-18 NSCLC
BT-549 breast = tested on: BT-549 breast
PC-3 prostate = tested on: PC-3 prostate
T-47D breast = tested on: T-47D breast
NCI/ADR-RES ovarian = tested on: NCI/ADR-RES ovarian

SMILES | TGI (XF 498 CNS) [µM] | TGI (M19-MEL melanoma) [µM] | TGI (DLD-1 colon) [µM] | TGI (LXFL 529 NSCLC) [µM] | TGI (KM20L2 colon) [µM] | TGI (TK-10 renal) [µM] | TGI (SNB-78 CNS) [µM] | TGI (DMS 273 small cell lung) [µM] | TGI (SNB-19 CNS) [µM] | TGI (MDA-N) [µM] | TGI (HOP-18 NSCLC) [µM] | TGI (BT-549 breast) [µM] | TGI (PC-3 prostate) [µM] | TGI (T-47D breast) [µM] | TGI (NCI/ADR-RES ovarian) [µM] | GI50 (PC-3 prostate) [µM] | GI50 (T-47D breast) [µM] | GI50 (NCI/ADR-RES ovarian) [µM] | GI50 (TK-10 renal) [µM] | GI50 (SNB-19 CNS) [µM]
CCC(C)C(=O)c1c(O)c(C/C=C(\C)CCC=C(C)C)c(O)c2c(C(O)CC)cc(=O)oc12 (centres undefined) | 4.53 | 6.51 | 11.3 | 2.99 | 2.68 | 13.1 | 16.7 | 8.29 | 16.2 |  |  |  |  |  |  |  |  |  |  | 
CC[n+]1c(/C=C/c2ccc(N(CCCl)CCCl)cc2)ccc2cc(NC(=O)/C=C/c3ccccc3)ccc21 |  |  |  |  |  | 24.5 | 16 |  | 1.67 | 1.7 | 13 | 1.58 | 1.09 | 1.5 | > 100 |  |  |  |  | 
COc1cc(C2c3cc4c(cc3[C@@H](Nc3cccc(C(C)=O)c3)C3COC(=O)[C@H]23)OCO4)cc(OC)c1O (some centres undefined) | 14.9 | > 57.7 | 4.93 |  | > 23.3 |  | > 100 | 1.81 | 4.79 |  | 54.3 |  |  |  | > 100 |  |  |  |  | 
COc1ccc(CC(C)N)cc1 (centres undefined) | > 100 |  | > 100 | > 100 | > 100 | > 100 | > 100 | > 100 | > 100 |  | > 100 |  |  |  |  |  |  |  |  | 
CCO/N=[N+](\[O-])N(CC)CC | > 100 | > 100 |  | > 100 | > 100 | > 100 | > 100 | > 100 | > 100 |  |  |  |  |  |  |  |  |  |  | 
CC1(C)N=C(N)N=C(N)N1c1cccc(OCCOc2ccc([N+](=O)[O-])cc2)c1 |  |  |  |  |  | > 100 |  |  | > 100 | > 100 |  | > 100 | > 100 |  |  |  |  |  |  | 
CC(C)C[P+](c1ccccc1)(c1ccccc1)c1ccccc1 |  |  |  |  |  | 66.5 |  |  | > 100 |  |  | > 100 |  | > 100 | > 100 |  |  |  |  | 
Cc1nc2ccccc2c(=O)[nH]1 | > 100 | > 100 | > 100 | > 100 | > 100 | > 100 | > 100 |  | > 100 |  | > 100 |  |  |  |  |  |  |  |  | 
ClCc1c(Cl)c(Cl)c(Cl)c(CCl)c1Cl |  |  |  |  |  | 2.89 |  |  | 4.23 |  |  |  | 3.15 | 3.87 | 17.3 | 1.69 | 1.99 | 3.5 | 1.56 | 1.94
CCOC(=O)/C=C(\C)c1ccc(OC)cc1 | > 100 |  | > 100 | > 100 | > 100 | > 100 | > 100 | > 100 | > 100 |  | > 100 |  |  |  |  |  |  |  |  | 
COc1cc[n+](C)cc1 | > 100 | > 100 | > 100 |  | > 100 |  | > 100 | > 100 | > 100 |  | > 100 |  |  |  | > 100 |  |  |  |  | 
NCc1ccc(C(=O)O)cc1 |  |  |  |  |  | > 100 |  |  | > 100 | > 100 |  | > 100 | > 100 | > 100 | > 100 |  |  |  |  | 
C#CC[C@@H]1C[C@]2(C)[C@H]3CC=C4[C@H]5CC(C)(C)CC[C@]5(C(=O)NCCCCN)CC[C@@]4(C)[C@]3(C)CC[C@H]2C(C)(C)[C@H]1OC(C)=O |  |  |  |  |  |  |  |  |  |  |  |  | 2.93 | 3.48 |  | 1.55 | 1.72 |  |  | 
Brc1ccccc1-c1ncc(-c2ccccc2)o1 |  |  |  |  |  | > 100 |  |  | > 100 | > 100 |  | > 100 | > 100 | > 100 | > 100 |  |  |  |  | 
O=[N+]([O-])c1cn[n+]([O-])c2ccccc12 |  |  |  |  |  | 25.8 |  |  | 25.2 | 27.5 |  | 18.8 | 23.3 | 18 | 19.2 |  |  |  |  | 
CN(C)c1ccc(N=Nc2ccccn2)cc1 |  |  |  |  |  | > 100 |  |  | > 100 | > 100 |  | > 100 | 81.9 | > 100 | 66.1 |  |  |  |  | 
CC(C)(Br)C1(O)CCCN1C(=O)c1ccccc1 (centres undefined) |  | > 100 | > 100 | > 100 | > 100 | > 100 | > 100 | > 100 | > 100 |  | > 100 |  |  |  |  |  |  |  |  | 
NCc1ccccc1C1CSCSC1 | > 100 | > 100 | > 100 | > 100 |  | > 100 | > 100 | > 100 |  |  |  |  |  |  |  |  |  |  |  | 
COc1ccc(NC(=O)/C(CC2=Nc3ccc([N+](=O)[O-])cc3NC2O)=N\NC(=O)C[N+](C)(C)C)c(OC)c1 (centres undefined) |  |  |  |  |  | > 100 |  |  | > 100 | > 100 |  | > 100 | > 100 |  | > 100 |  |  |  |  | 
Cn1c(-c2ccc(/C=N\N3CCN(/N=C/c4ccc(-c5c[n+]6ccccc6n5C)cc4)CC3)cc2)c[n+]2ccccc12 |  |  |  |  |  | > 100 |  |  | > 100 | > 100 |  | > 100 | > 100 | > 100 | > 100 |  |  |  |  | 
C=C1C(=O)OC2C1CC(O)/C(C)=C\CCC1(C)OC21 (centres undefined) |  |  |  |  |  | > 100 |  |  | > 100 | 36.2 |  | 43.2 | > 100 | > 100 | 62.3 |  |  |  |  | 
